Values of other authors in US12336538B2, “Method for controlling rats and mice with cholecalciferol baits” (priority 2014, dated 2025).

How the values were obtained:
bait shyness = conditions: Gould and Holmes, Pest Manag. Sci. 2008

Structure (SMILES)	suitability to control a rat population (rat population; 0.1% cholecalciferol alone, only one day of feeding, Posipischil and Schnorbach 1994)	suitability to control rat population (rat population; cholecalciferol alone, Kocher and Navjot 2013)	prevention of bait shyness to cholecalciferol (bait shyness)
C=C1CC[C@H](O)C/C1=C/C=C1\CCC[C@]2(C)[C@@H]([C@H](C)CCCC(C)C)CC[C@@H]12 [cholecalciferol, Cholecalciferol]	not suitable to control a rat population	not suitable to control rat population	–
COc1ccc2c(c1)[C@]13CCCC[C@@H]1[C@H](C2)N(C)CC3 [dextromethorphan]	–	–	ineffective
